Here are results for 30 compounds from patent US8569308B2, “Substituted heteroarylamine carboxamide analogs as mGluR5 negative allosteric modulators and methods of making and using the same” (Vanderbilt University, priority 2009, dated 2013).

The target in the test is rat mGluR5 (Rattus norvegicus, UniProt P31424). Kind of test: cell-based.
Sequence of rat mGluR5 (P31424 21-1203): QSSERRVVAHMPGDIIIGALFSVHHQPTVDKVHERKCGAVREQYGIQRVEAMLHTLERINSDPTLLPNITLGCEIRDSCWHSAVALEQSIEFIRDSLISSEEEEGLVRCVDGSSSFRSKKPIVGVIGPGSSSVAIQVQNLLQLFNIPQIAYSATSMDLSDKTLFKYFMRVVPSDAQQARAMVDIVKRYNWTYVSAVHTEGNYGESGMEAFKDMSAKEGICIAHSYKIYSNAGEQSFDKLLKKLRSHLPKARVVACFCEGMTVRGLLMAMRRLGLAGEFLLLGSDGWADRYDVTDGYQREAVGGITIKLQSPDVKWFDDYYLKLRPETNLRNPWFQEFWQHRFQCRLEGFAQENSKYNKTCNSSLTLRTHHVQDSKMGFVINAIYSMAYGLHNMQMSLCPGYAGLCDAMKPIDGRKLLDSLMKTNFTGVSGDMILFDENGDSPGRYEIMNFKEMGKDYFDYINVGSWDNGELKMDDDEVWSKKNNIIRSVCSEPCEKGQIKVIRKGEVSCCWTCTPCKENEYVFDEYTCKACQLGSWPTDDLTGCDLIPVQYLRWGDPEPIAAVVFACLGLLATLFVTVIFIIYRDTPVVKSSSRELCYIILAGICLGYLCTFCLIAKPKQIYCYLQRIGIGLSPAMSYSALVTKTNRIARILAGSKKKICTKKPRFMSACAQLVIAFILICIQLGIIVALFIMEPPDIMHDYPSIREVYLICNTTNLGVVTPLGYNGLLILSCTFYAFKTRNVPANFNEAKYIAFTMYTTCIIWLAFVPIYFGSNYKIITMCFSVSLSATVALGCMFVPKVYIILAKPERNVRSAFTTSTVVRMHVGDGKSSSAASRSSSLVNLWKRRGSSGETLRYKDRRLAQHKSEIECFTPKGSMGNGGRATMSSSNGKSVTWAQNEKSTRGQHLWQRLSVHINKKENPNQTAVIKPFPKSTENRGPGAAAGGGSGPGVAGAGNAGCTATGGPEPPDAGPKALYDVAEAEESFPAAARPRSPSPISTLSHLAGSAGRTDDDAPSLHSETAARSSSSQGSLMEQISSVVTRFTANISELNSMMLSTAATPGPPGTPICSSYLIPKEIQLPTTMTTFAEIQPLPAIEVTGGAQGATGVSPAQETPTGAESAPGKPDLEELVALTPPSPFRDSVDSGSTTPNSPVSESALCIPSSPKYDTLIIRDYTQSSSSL

Procedure: The cells were loaded with a Ca2+-sensitive fluorescent dye (e.g., Fluo-4), and the plates were washed and placed in the FDSS instrument. Test compound was applied to cells 3 seconds after baseline readings were taken. Cells were incubated with the test compounds for 140 seconds and then stimulated with an EC20 concentration of an mGluR5 agonist (e.g., glutamate, 3,5-dihydroxyphenylglycine, or quisqualate); 60-80 seconds later an EC80 concentration of agonist was added and readings taken for an additional 40 seconds. Data were collected at 1 Hz. […] Concentration response curves were generated using a four parameter logistical equation.
The above described assay was operated in two modes. In the first mode (utilizing a triple add protocol), a range of concentrations of the present compounds were added to cells, followed by two single fixed concentrations of agonist (EC20 followed by EC80). If a compound acted as a potentiator, an EC50 value for potentiation of the EC20 response and a maximum extent of potentiation by the compound at this concentration of agonist was determined by non-linear curve fitting. If a compound acted as an antagonist, an IC50 value for antagonism of the EC80 response and a maximum extent of antagonism by the compound at this concentration of agonist was determined by non-linear curve fitting. In the second mode (utilizing a double add protocol), several fixed concentrations of the present compounds were added to various wells on a plate, followed by a range of concentrations of agonist for each concentration of present compound; the EC50 values for the agonist at each concentration of compound were determined by nonlinear curve fitting. A decrease in the EC50 value of the agonist with increasing concentrations of the present compounds (a leftward shift of the agonist concentration-response curve) is an indication of the degree of mGluR5 positive allosteric modulation at a given concentration of the present compound. An increase in the EC50 value of the agonist with increasing concentrations of the present compounds (a rightward shift of the agonist concentration response curve) is an indication of the degree of mGluR5 antagonism at a given concentration of the present compound. The second mode also indicates whether the present compounds also affect the maximum response to mGluR5 to agonists.
The mGluR5 activity was determined using the metabotropic glutamate receptor activity assays in human embryonic kidney cells as described herein, wherein the human embryonic kidney cells were transfected with rat mGluR5. The mGluR5 activity data for some compounds are shown as the average of at least three experiments with the standard error in these cases. If no error is indicated for the mGluR5 activity, the values given represent the results from a single experiment or the average of two experiments.

`N#Cc1cccc(C(=O)Nc2cncc(Oc3cccnc3)c2)c1` showed an IC50 of 500 nM.

`Cc1ccc(Oc2cncc(NC(=O)c3cccc(Cl)c3)n2)cn1` showed an IC50 greater than 10000 nM.

Regarding `O=C(Nc1ccnc(Oc2cccnc2)c1)c1cccc(Cl)c1`, half-maximal inhibition (IC50) required 1120 nM.

For `Cc1cccc(C(=O)Nc2cncc(Oc3cccnc3)n2)n1`, the IC50 is greater than 30000 nM.

As to `Cc1cccc(C(=O)Nc2cccc(Oc3cncnc3)n2)c1`, the IC50 was found to be 87 nM.

For the compound `N#Cc1cncc(C(=O)Nc2cncc(Oc3cncnc3)c2)c1`, the IC50 is greater than 10000 nM.

Compound `O=C(Nc1cncc(Oc2cncnc2)c1)c1cccc(C(F)(F)F)n1` gave an IC50 greater than 30000 nM.

`Cc1cccc(C(=O)Nc2cncc(Oc3cccnc3)n2)c1` came in with an IC50 of 166 nM.

In the case of `Cc1cccc(C(=O)Nc2cncc(Oc3ccc(C(F)(F)F)nc3)n2)c1`, the IC50 was greater than 10000 nM.

`Cc1cccc(C(=O)Nc2cncc(Oc3ccc(C)nc3)n2)c1` registered an IC50 greater than 10000 nM.

As for `CN(c1cncnc1)c1ccnc(NC(=O)c2cccc(Br)c2)c1`, the midpoint of inhibition, the IC50, lay at 162 nM.

In turn, `O=C(Nc1cncc(Oc2cccnc2)n1)c1cccc(Cl)c1` showed an IC50 of 100 ± 12 nM.

`Cc1ccc(Oc2cncc(NC(=O)c3cccc(C)n3)n2)cn1` came in with an IC50 greater than 30000 nM.

Take `O=C(Nc1cncc(Oc2cncnc2)c1)c1cccc(F)n1`: the IC50 is greater than 30000 nM.

Take `O=C(Nc1ccnc(Oc2cccnc2)c1)c1cccc(Br)c1`: the IC50 is greater than 10000 nM.

`CCN(c1cncnc1)c1cncc(NC(=O)c2cccc(C#N)c2)c1`: the IC50 came to 1790 nM.

For the compound `N#Cc1cccc(C(=O)Nc2cccc(Oc3cncnc3)n2)c1`, the IC50 was 271 nM. This IC50 lies about 6.6-fold lower than the previous one.

`N#Cc1csc(C(=O)Nc2cncc(Oc3cncnc3)c2)c1` came in with an IC50 greater than 10000 nM.

Take `Cc1cccc(C(=O)Nc2cccc(Oc3ccc(C(F)(F)F)nc3)n2)c1`: the IC50 is greater than 30000 nM.

As for `O=C(Nc1cncc(Oc2cncnc2)c1)c1cscn1`, the IC50 was greater than 10000 nM.

The compound `O=C(Nc1cncc(Oc2cncnc2)c1)c1cc(Cl)ccc1F` showed an IC50 of 927 nM.

With `N#Cc1cccc(C(=O)Nc2cncc(Oc3cccnc3)n2)c1`, inhibition was half-maximal at 460 nM (IC50).

Take `Cc1cccc(C(=O)Nc2cccc(Oc3cncnc3)n2)n1`: the IC50 is greater than 30000 nM.

`N#Cc1cccc(C(=O)Nc2cccc(Oc3cccnc3)n2)c1` displayed an IC50 of 266 nM.

Compound `O=C(Nc1cncc(Oc2cncnc2)c1)c1cccc(F)c1` registered an IC50 greater than 10000 nM.

`CN(c1cccnc1)c1ccnc(NC(=O)c2cccc(Br)c2)c1` came in with an IC50 of 123 nM.

On to `N#Cc1cccc(C(=O)Nc2cccc(Oc3ccc(C(F)(F)F)nc3)n2)c1`, for which the IC50 is greater than 30000 nM.

With `Cc1cccc(C(=O)Nc2cncc(Oc3ccc(C(F)(F)F)nc3)n2)n1`, the IC50 was greater than 30000 nM.

`Cc1cccc(C(=O)Nc2cccc(Oc3ccc(C(F)(F)F)nc3)n2)n1` registered an IC50 greater than 30000 nM.

As to `CN(c1cncnc1)c1ccnc(NC(=O)c2cccc(C#N)c2)c1`, half-maximal inhibition (IC50) required 2260 nM.

For orientation: IC50 means the concentration that inhibits the measured activity by half. Read a low IC50 as greater potency in that assay.
